One series concerns the target WT IDH1 (Homo sapiens, UniProt O75874). Nature of the series: WT IDH1 enzyme inhibition. The class given is biochemical. The settings on record: at 100 μM.
The subject of the next series is WI-38 fibroblast cells. Nature of the series: Cytotoxicity against WI-38 fibroblast cells. It is filed as cell-based, human.
The nature of series [1]: Cytotoxicity against WI-38 fibroblast cells. The settings on record: human, WI-38 fibroblast cells. The class given is cell-based, human.

Five molecules from paper PMC3686309 (ACS medicinal chemistry letters, 2013) can be followed below.

Broadly, the pEC50 is −log10 of the EC50, conventionally taken in molar units. Read a low pEC50 as a high EC50.

pEC50: −log10 of the molar value.

WT IDH1, sequence (O75874 whole entry): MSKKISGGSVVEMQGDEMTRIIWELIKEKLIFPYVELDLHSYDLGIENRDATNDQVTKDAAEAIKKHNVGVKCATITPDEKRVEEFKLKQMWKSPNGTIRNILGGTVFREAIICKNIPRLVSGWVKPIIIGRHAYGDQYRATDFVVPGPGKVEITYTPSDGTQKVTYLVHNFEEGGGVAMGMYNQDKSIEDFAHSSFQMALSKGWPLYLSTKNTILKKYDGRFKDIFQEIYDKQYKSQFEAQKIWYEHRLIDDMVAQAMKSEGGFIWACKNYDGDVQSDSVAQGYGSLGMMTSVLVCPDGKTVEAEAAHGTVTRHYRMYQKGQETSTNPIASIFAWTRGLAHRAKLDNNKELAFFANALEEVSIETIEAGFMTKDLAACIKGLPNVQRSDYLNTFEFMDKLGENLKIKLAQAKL

With `O=c1ccc(Cc2ccccc2)cn1O` [Compound 1], the “activity against WT IDH1” value at WT IDH1 was “no activity”. Take `Cc1cc(Cc2ccccc2)n(O)c(=O)c1` [Compound 2]: the “cytotoxicity against human cells (in words)” value with WI-38 fibroblast cells is “do not have cytotoxicity”. For the same molecule, the pEC50 in series [1] was < 4.30. For `Cc1cc(Cc2ccc(O)cc2)n(O)c(=O)c1` [Compound 3] the same measures were “do not have cytotoxicity” and < 4.30. In the case of `O=c1cccc(Cc2ccccc2)n1O` [Compound 4], the pEC50 in series [1] is < 4.30. On to `CC(C)c1cc(Cc2ccccc2)n(O)c(=O)c1` [Compound 5], for which the negative logarithm of the EC50 (pEC50) in series [1] was < 4.30.
